# Where “and” joins values, the source holds several entries; their conditions need not be identical. Equal entries are not always repeated.
# Assays:
# [1] = tested on: Schistosoma mansoni; test: Antischistosomal activity in infected mice; assay type: in vivo
# [2] = tested on: Schistosoma mansoni; test: Antischistosomal activity in infected mice; assay type: in vivo; remark: listed apart in the source
# Procedure: Six groups of test mice, infected with Schistosoma mansoni, were treated as follows:
# (1) a single dose of formulated CGP 4540 (10 mg/kg) with no antibiotic administered;
# (2) single dose of formulated CGP 4540 as in (1) but preceded by 100 mg/kg of erythromycin (base);
# (4) same as (1) but using a CGP 4540 dosage of 15 mg/kg;
# (5) same as (4) but preceded by a 100 mg/kg dose of erythromycin; and
# All drugs were administered by gastric intubation.
# [3] = Conversion of CGP 4540 to mutagenic metabolite by route; assay type: in vivo; conditions: oral vs injected intramuscularly or intravenously
# [4] = tested on: S. typhimurium TA 100
# [5] = tested on: Salmonella typhimurium Strain TA 100; test: Urine analysis (Ames test) of mice treated with CGP 4540, strain TA 100, with/without S9;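 further: mouse urine gathered in 24 h periods after drug dosing, 0.1 and 0.25 ml aliquots plated on the bacteria, plates counted following 48 h at 37 °C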
# Procedure: Mice are placed into a metabolism cage and control urines are collected on ice for 24 hours. These animals are then treated with the drug and urine is collected in refrigerated containers for the two subsequent 24-hour periods. The volume of the urine is measured and the urine is stored at -80° C. until assayed.
# Urine specimens are thawed, centrifuged at 10,000×g for 15 minutes and sterilized by filtration through a 0.22 μm Millipore filter. Effects of 0.1 and 0.25 ml aliquots are tested on strains TA 100 with and without added S9 microsomal fraction. Plates are counted after incubation at 37° C. for 48 hours. The dose response at these two urine concentrations is used to calculate the number of revertants induced by the total volume of urine excreted in 24 hours. […] Aliquots of this mixture are tested after adjustment to pH 7 in the absence and the presence of the S9 fraction.
# The mice were infected with S. typhimurium TA 100 as the test strain and the CGP 4540 was formulated as in Example 1. […] Three control mice were employed.
# [6] = tested on: Salmonella typhimurium; test: Mutagenic activity of urines of treated germ-free and conventional rats (Ames); assay type: in vivo; conditions: for Revertants in excess of controls excreted in 24 hrs: 250 mg/kg oral
# Procedure: Urine analysis (referred to above as the "Ames" test).
# The schistosomicide 4-nitro-4'-[…] diphenylamine (CGP 4540) was orally administered to two germ-free rats and two conventional male Fisher rats weighing 220-240 grams. Urines from the thus treated animals were analyzed for mutagenic activity and assays were carried out as described in Journal of Pharmacology and Experimental Therapeutics, 200, 1-9 (1977) using the methodology of Ames et al (Mutat. Res., 31, 347-364). The mutagenic activities of the urines were determined in both the absence and presence of S9 (hepatic microsomal) fractions of phenobarbital pretreated rats (Ames et al, Proc. Nat. Acad. Sci, U.S.A., 71, 737-741, 1974) without and with preincubation with β-glucuronidase.
# For test purposes, the isothiocyanate derivative was dissolved at 40° C. in a polyethoxylated vegetable oil (Emulphor El 620) to a final concentration of 50 mg/ml. Following sterilization by means of millipore filtration the mixture was administered by gastric intubation to two germ-free and two conventional male Fisher rats (weighing 220 to 240 gms) at a dose of 250 mg/kg of the isothiocyanate. One germ-free and one conventional rat that were given the filtered vehicle without the drug served as controls. The urines of each animal were collected for a period of 48 hours subsequent to administration of the drug or the filtered vehicle.
# The germ-free rats used in the tests were kept in Tresder type plastic isolators. After administration of the isothiocyanate or the vehicle the germ-free rats were transferred into individual metabolism cages in the isolators.
# The mutagenic activity determined for the test animals, expressed in terms of revertants in excess of the controls, is shown below: […]
# [7] = tested on: bile ducts and the liver; test: Acute hepatotoxic effects; assay type: in vivo
# Description: A further advantage of the invention is that, at least in some instances, acute hepatotoxic effects resulting from use of an antischistosomal or other drug and caused by a metabolic product, may be prevented. […] Accordingly, in this particular situation the administration of the antibacterial agent not only prevents the mutagenic effects of a metabolic product of the intestinal bacterial flora but also the acute hepatotoxic effects which might otherwise be encountered.
# [8] = Thin layer chromatography of urine extracts for mutagenic metabolite; assay type: in vivo, rats
# [9] = CGP 4540 10 mg/kg single dose, no antibiotic, 196 mice, 10 mg/kg
# [10] = CGP 4540 10 mg/kg, bacitracin 440 mg/kg
# [11] = CGP 4540 10 mg/kg, erythromycylamine 100 mg/kg
# [12] = CGP 4540 10 mg/kg, succinylsulfathiazole 1 g/kg + bacitracin 220 mg/kg
# [13] = CGP 4540 15 mg/kg, erythromycin (base) 100 mg/kg
# [14] = CGP 4540 15 mg/kg, erythromycylamine 100 mg/kg
# [15] = CGP 4540 15 mg/kg, no antibiotic
# [16] = CGP 4540 20 mg/kg, bacitracin 440 mg/kg
# [17] = CGP 4540 20 mg/kg, no antibacterial
# [18] = CGP 4540 20 mg/kg, succinylsulfathiazole 1 g/kg + bacitracin 220 mg/kg
# [19] = CGP 4540 10 mg/kg, erythromycin (base) 100 mg/kg
# [20] = succinylsulfathiazole 1 g/kg once daily for 3 days before CGP 4540
compound,measurement,setting,value
O=[N+]([O-])c1ccc(Nc2ccc(N=C=S)cc2)cc1 [CGP 4540],Reduction in number of worms,"[1]; CGP 4540 10 mg/kg single dose, no antibiotic, 196 mice",99%
same,Mice with parasitological cures,[1]; [9],96%
same,Mice with parasitological cures,[1]; [10],88%
same,Reduction in no. of worms,[1]; [10],98%
same,Mice with parasitological cures,[1]; [11],100%
same,Mice with parasitological cures,[1]; [12],92%
same,Reduction in no. of worms,[1]; [12],99%
same,Mice with parasitological cures,[1]; [13],100%
same,Reduction in number of worms,[1]; [13],100%
same,Mice with parasitological cures,[1]; [14],100%
same,Mice with parasitological cures,[1]; [15],100%
same,Reduction in number of worms,[1]; [15],100%
same,Mice with parasitological cures,[1]; [16],100%
same,Reduction in no. of worms,[1]; [16],100%
same,Mice with parasitological cures,[1]; [17],100%
same,Reduction in no. of worms,[1]; [17],100%
same,Mice with parasitological cures,[1]; [18],100%
same,Reduction in no. of worms,[1]; [18],100%
same,Curative antischistosomal activity after preceding antibiotic treatment,[1]; erythromycin base or erythromycylamine,not reduced
same,"Effectiveness against schistosomiasis, oral vs intramuscular","[1]; formulated CGP 4540, oral and intramuscular",about equally effective
same,Antischistosomal activity after reduction of bacterial flora,"[1]; succinylsulfathiazole 1 g/kg once daily for 3 days, oral",do not appear to affect the antischistosomal activity
same,Mice with parasitological cures,[2]; [9],95%
same,Mice with parasitological cures,[2]; [19],100%
same,Reduction in number of worms,[2]; [19],100%
same,Reduction in number of worms,[2]; [11],100%
same,Reduction in number of worms,[2]; [14],100%
same,Schistosomicidal activity of single low doses with or without antibacterial agents,"[2]; single low doses, with vs without antibacterial agents",nearly or equally as effective
same,"Increase in conversion to mutagenic metabolite, oral vs intramuscular or intravenous",[3],50%
same,Mutagenic activity in the host mediated assay,"[4]; in vivo, po",no mutagenic activity was detectable
same,Mutant colonies found in the host-mediated assay,[4]; [20],very marked decrease
same,Urine revertants in excess of controls,"[5]; CGP 4540 100 mg/kg oral, no pretreatment, day 1, +S9",239 revertants per total 24 hour u
same,Urine revertants in excess of controls,"[5]; CGP 4540 100 mg/kg oral, no pretreatment, day 1, no S9",56 revertants per total 24 hour u
same,Urine revertants in excess of controls,"[5]; CGP 4540 100 mg/kg oral, no pretreatment, day 2, +S9",30 revertants per total 24 hour u
same,Urine revertants in excess of controls,"[5]; CGP 4540 100 mg/kg oral, no pretreatment, day 2, no S9",11 revertants per total 24 hour u
same,Urine revertants in excess of controls,"[5]; CGP 4540 100 mg/kg oral, succinylsulfathiazole 1 g/kg, day 1, +S9",108 revertants per total 24 hour u
same,Urine revertants in excess of controls,"[5]; CGP 4540 100 mg/kg oral, succinylsulfathiazole 1 g/kg, day 1, no S9",37 revertants per total 24 hour u
same,Urine revertants in excess of controls,"[5]; CGP 4540 100 mg/kg oral, succinylsulfathiazole 1 g/kg, day 2, +S9",12 revertants per total 24 hour u
same,Urine revertants in excess of controls,"[5]; CGP 4540 100 mg/kg oral, succinylsulfathiazole 1 g/kg, day 2, no S9",0 revertants per total 24 hour u
same,Urine revertants in excess of controls,"[5]; CGP 4540 250 mg/kg oral, bacitracin 220 mg/kg, day 1, +S9",96 revertants per total 24 hour u
same,Urine revertants in excess of controls,"[5]; CGP 4540 250 mg/kg oral, bacitracin 220 mg/kg, day 1, no S9",31 revertants per total 24 hour u
same,Urine revertants in excess of controls,"[5]; CGP 4540 250 mg/kg oral, bacitracin 220 mg/kg, day 2, +S9",10 revertants per total 24 hour u
same,Urine revertants in excess of controls,"[5]; CGP 4540 250 mg/kg oral, bacitracin 220 mg/kg, day 2, no S9",4 revertants per total 24 hour u
same,Urine revertants in excess of controls,"[5]; CGP 4540 250 mg/kg oral, bacitracin 440 mg/kg, day 1, +S9",0 revertants per total 24 hour u
same,Urine revertants in excess of controls,"[5]; CGP 4540 250 mg/kg oral, bacitracin 440 mg/kg, day 1, no S9",0 revertants per total 24 hour u
same,Urine revertants in excess of controls,"[5]; CGP 4540 250 mg/kg oral, bacitracin 440 mg/kg, day 2, +S9",0 revertants per total 24 hour u
same,Urine revertants in excess of controls,"[5]; CGP 4540 250 mg/kg oral, bacitracin 440 mg/kg, day 2, no S9",0 revertants per total 24 hour u
same,Urine revertants in excess of controls,"[5]; CGP 4540 250 mg/kg oral, erythromycin base 100 mg/kg, day 1, +S9",0 revertants per total 24 hour u
same,Urine revertants in excess of controls,"[5]; CGP 4540 250 mg/kg oral, erythromycin base 100 mg/kg, day 1, no S9",0 revertants per total 24 hour u
same,Urine revertants in excess of controls,"[5]; CGP 4540 250 mg/kg oral, erythromycin base 100 mg/kg, day 2, +S9",0 revertants per total 24 hour u
same,Urine revertants in excess of controls,"[5]; CGP 4540 250 mg/kg oral, erythromycin base 100 mg/kg, day 2, no S9",0 revertants per total 24 hour u
same,Urine revertants in excess of controls,"[5]; CGP 4540 250 mg/kg oral, no pretreatment, day 1, +S9",541 revertants per total 24 hour u
same,Urine revertants in excess of controls,"[5]; CGP 4540 250 mg/kg oral, no pretreatment, day 1, no S9",120 revertants per total 24 hour u
same,Urine revertants in excess of controls,"[5]; CGP 4540 250 mg/kg oral, no pretreatment, day 2, +S9",89 revertants per total 24 hour u
same,Urine revertants in excess of controls,"[5]; CGP 4540 250 mg/kg oral, no pretreatment, day 2, no S9",32 revertants per total 24 hour u
same,Urine revertants in excess of controls,"[5]; CGP 4540 250 mg/kg oral, succinylsulfathiazole 1 g/kg + bacitracin 220 mg/kg, day 1, +S9",0 revertants per total 24 hour u
same,Urine revertants in excess of controls,"[5]; CGP 4540 250 mg/kg oral, succinylsulfathiazole 1 g/kg + bacitracin 220 mg/kg, day 1, no S9",0 revertants per total 24 hour u
same,Urine revertants in excess of controls,"[5]; CGP 4540 250 mg/kg oral, succinylsulfathiazole 1 g/kg + bacitracin 220 mg/kg, day 2, +S9",0 revertants per total 24 hour u
same,Urine revertants in excess of controls,"[5]; CGP 4540 250 mg/kg oral, succinylsulfathiazole 1 g/kg + bacitracin 220 mg/kg, day 2, no S9",0 revertants per total 24 hour u
same,Urine revertants in excess of controls,"[5]; CGP 4540 250 mg/kg oral, succinylsulfathiazole 1 g/kg, day 1, +S9",269 revertants per total 24 hour u
same,Urine revertants in excess of controls,"[5]; CGP 4540 250 mg/kg oral, succinylsulfathiazole 1 g/kg, day 1, no S9",73 revertants per total 24 hour u
same,Urine revertants in excess of controls,"[5]; CGP 4540 250 mg/kg oral, succinylsulfathiazole 1 g/kg, day 2, +S9",30 revertants per total 24 hour u
same,Urine revertants in excess of controls,"[5]; CGP 4540 250 mg/kg oral, succinylsulfathiazole 1 g/kg, day 2, no S9",7 revertants per total 24 hour u
same,Mutagenic urinary metabolite,[5]; [20],very marked decrease
same,Mutagenic activity after incubation of urines with β-glucuronidase,"[6]; 3 hrs at 37° C., conventional rats",No further increase in mutagenic activity
same,Revertants in excess of controls excreted in 24 hrs,"[6]; conventional rats, urine 0-24 hrs, +S9, 250 mg/kg","4,900 revertants excreted in 24 hrs and 5,000 revertants excreted in 24 hrs"
same,Revertants in excess of controls excreted in 24 hrs,"[6]; conventional rats, urine 0-24 hrs, -S9, 250 mg/kg","3,800 revertants excreted in 24 hrs and 3,750 revertants excreted in 24 hrs"
same,Revertants in excess of controls excreted in 24 hrs,"[6]; conventional rats, urine 24-48 hrs, +S9, 250 mg/kg","2,800 revertants excreted in 24 hrs and 3,050 revertants excreted in 24 hrs"
same,Revertants in excess of controls excreted in 24 hrs,"[6]; conventional rats, urine 24-48 hrs, -S9, 250 mg/kg","1,600 revertants excreted in 24 hrs and 1,200 revertants excreted in 24 hrs"
same,Revertants in excess of controls excreted in 24 hrs,"[6]; germ-free rats, urine 0-24 hrs, +S9",0 revertants excreted in 24 hrs
same,Revertants in excess of controls excreted in 24 hrs,"[6]; germ-free rats, urine 0-24 hrs, -S9",0 revertants excreted in 24 hrs
same,Revertants in excess of controls excreted in 24 hrs,"[6]; germ-free rats, urine 24-48 hrs, +S9",0 revertants excreted in 24 hrs
same,Revertants in excess of controls excreted in 24 hrs,"[6]; germ-free rats, urine 24-48 hrs, -S9",0 revertants excreted in 24 hrs
same,Urinary mutagenic metabolite in germ-free rats,[6]; urines of germ-free rats (1) and (2),no mutagenic metabolite was detectable
same,Lesions in bile ducts and liver,[7]; 500 mg/kg (50 times the curative dose),some destructive lesions may be produced in the bile ducts and the liver
same,Lesions in bile ducts and liver with antibacterial agent,"[7]; 500 mg/kg, co-administration of erythromycin",these lesions are prevented
same,Spot with Rf similar to isolated mutagenic metabolite in urine extract,"[8]; conventional rats, 250 mg/kg oral, urine 0 to 24 hours",recognizable
same,Spot with Rf similar to isolated mutagenic metabolite in urine extract,[8]; germ-free rats,No such spot appeared

# Reference: patent publication US4328215A, “Method of reducing or avoiding the mutagenic activity of drugs” (The Johns Hopkins University, priority 1977, dated 1982)
